Assay results published in publication PMC7168207, “Dibasic Derivatives of Phenylcarbamic Acid as Prospective Antibacterial Agents Interacting with Cytoplasmic Membrane” (Antibiotics, 2020).
Values joined by “and” are separate entries in the source; they are usually repeats but may differ in a detail not shown here. Identical values can stand only once. Marks after values point to notes of the source that are not given here.

Experiments:
[1] = tested on: Candida albicans CCM 8261; assay: minimum fungistatic concentration, RPMI 1640; format: cell-based; details: CCM8261, CA = C albicans CCM 8261, 48 h
Protocol: Fungistatic activity was tested similarly in RPMI (Roswell Park Memorial Institute) 1640 medium (Sigma, Pool, UK). […] A growth control and sterility control were included. The colonies of C. albicans grown overnight on Sabourad dextrose agar were suspended in sterile phosphate-buffered saline (PBS) to get cell density 0.5 McFarland. The inoculum was diluted to get a final concentration of 10^3 CFU/mL in the wells. Plates were inoculated and cultivated at 37 °C for 48 h. The minimum fungistatic concentration was visually evaluated as the lowest concentration of a tested compound, which inhibited 100% of yeast growth. 5-Flucytosin (Sigma, UK) was used as a positive control.

[2] = tested on: S. aureus ATCC 29213 biofilm; assay: biofilm inhibition assay (crystal violet); format: cell-based, Staphylococcus aureus; details: ≥80% inhibition of biofilm formation; for MBIC80 (minimum biofilm inhibitory concentration): 48 h
Protocol: (§1) The ability of compounds 1f, 1g, and 1h to inhibit biofilm growth and destroy the matured biofilm of S. aureus ATCC 29213 was investigated. The inhibitory activity was studied by the method with crystal violet. The activity to disrupt matured biofilm was evaluated as a decrease of metabolic activity using the MTT assay.
The plates were inoculated by inoculum of S. aureus ATCC 29213 grown in TSB + 2% glucose to exponential phase. Before the inoculation of the plate, the original inoculum was diluted to 1 McFarland and then 1:100 in fresh TSB + 2% glucose, to reach the final concentrations in the wells of […]. […] The plates were incubated at 37 °C for 48 h. After incubation, the contents of the wells were removed, and the plates were washed three times by sterile PBS. After drying, 125 μL of 0.5% crystal violet was added to each well and the plates were stained at room temperature for 20 min. Then the dye was removed, and the plates were washed three times by sterile PBS. The colored biofilm was detached from the wells using 33% solution of acetic acid. The absorbance at 595 nm was measured. As a blank, a non-inoculated plate treated in the same way was used. […] The minimum biofilm inhibitory concentration was the lowest concentration of the compounds, which inhibited the growth of 80% bacteria compared to the growth control. The experiment was made in duplicate and repeated at least three times.

[3] = tested on: S. aureus ATCC 29213 biofilm; assay: biofilm susceptibility / eradication of preformed biofilm (MTT); format: cell-based, Staphylococcus aureus; details: for MBEC80 (minimum biofilm eradication concentration): 80% reduction of metabolic activity of preformed biofilm, 24 h
Protocol: as §1
Biofilms were grown as described above but without the presence of the compounds. After 48 h of incubation at 37 °C, the contents of the wells were removed, and the plates were washed three times by sterile PBS. After washing, 100 µL of tested compounds in CaMH were added to the wells. […] A growth control containing 2.5% of DMSO in CaMH was included. The plates were incubated at 37 °C for 24 h, then the solutions of compounds were removed, and the plates were gently washed three times by sterile PBS. Bacterial viability was analyzed using 100 µL of 0.05 mg/mL MTT (3-(4,5-dimethylthiazol-2-yl)- 2,5-diphenyltetrazolium bromide) in PBS in each well. The plates with MTT were incubated at 37 °C for 1–2 h in darkness, until the blue formazan crystals appeared. MTT solution was removed and the plates were washed once by PBS. Crystals of formazan were dissolved using 17% sodium dodecysulphate in 40% dimethylformamid. The absorbance at 570 nm was measured and the percentage of eradication was counted according to the equation (3) % of eradication = 100 − OD570S/OD570C × 100 where OD570S is the absorbance of the sample at 570 nm and OD570C is the absorbance of the growth control at 570 nm. The minimum biofilm eradication concentration was the lowest concentration of the compound, which reduced the metabolic activity of the biofilm by 80% compared to the growth control. The experiment was made in duplicate and repeated at least three times.

[4] = set-up: method as in PMID 30274224; details: cited from earlier work
MRSA 63718 = assay: time-kill study; format: cell-based, Staphylococcus aureus; details: MRSA1
Description: (§2) Time-kill studies are used to evaluate the dynamics of antibacterial activity. As mentioned above, a pre-test to determine minimum bactericidal concentration (MBC) by sub-cultivation of aliquots on agar was made (see Section 3.4). […] Time-kill studies were made with methicillin-susceptible S. aureus ATCC 29213 and methicillin-resistant MRSA 63718, vancomycin-susceptible E. faecalis ATCC 29212, and all three VRE isolates. Vancomycin was used as a control (Table 6).
(§3) The method of time-kill curves was used to study the bactericidal effect of selected compounds. […] The experiment was performed with S. aureus ATCC 29213, MRSA 63718, E. faecalis ATCC 29212, and all VRE isolates. […] The tubes were inoculated by bacterial inoculum in the exponential phase of growth to get a final concentration of 7.5 × 10^6 CFU/mL. The tubes were incubated statically at 37 °C. Immediately after inoculation and after 4, 6, 8, and 24 h, 100 µL of the sample was serially diluted (1:10) in PBS. Then, 2 × 20 µL from each dilution were put onto a Mueller–Hinton agar plate and cultivated at 37 °C for 24 h. After incubation, CFUs of dilutions containing 5–50 colonies were counted. Results were expressed as a decrease of log10(CFU) in each time compared to the starting inoculum. Bactericidal effect is defined as a −3log decrease of CFU/mL compared to the growth control in time 0. The test was made in duplicate on two separate occasions, and the results were averaged. The growth curves with error bars are shown in Figures S1 and S2 in Supplementary Materials.

S. aureus ATCC 29213 = assay: time-kill study; format: cell-based, Staphylococcus aureus; details: SA
Description: as §2, §3

| MIC [1] | SMILES | minimum biofilm inhibitory concentration relative to MIC against planktonic cells [2] | MBIC80 (minimum biofilm inhibitory concentration) [2] [µg/mL] | MBEC80 (minimum biofilm eradication concentration) [3] [µg/mL] | γ (surface tension, relative surface activity) [4] [N/m] | Log10 Difference in CFU/mL from Inoculum (MRSA 63718; 1 × MIC, 4 h) | Log10 Difference in CFU/mL from Inoculum (MRSA 63718; 1 × MIC, 6 h) [log10 CFU/mL] | Log10 Difference in CFU/mL from Inoculum (MRSA 63718; 1 × MIC, 8 h) [log10 CFU/mL] | Log10 Difference in CFU/mL from Inoculum (MRSA 63718; 1 × MIC, 24 h) [log10 CFU/mL] | Log10 Difference in CFU/mL from Inoculum (MRSA 63718; 2 × MIC, 4 h) | Log10 Difference in CFU/mL from Inoculum (MRSA 63718; 2 × MIC, 6 h) | Log10 Difference in CFU/mL from Inoculum (MRSA 63718; 2 × MIC, 8 h) [log10 CFU/mL] | Log10 Difference in CFU/mL from Inoculum (MRSA 63718; 2 × MIC, 24 h) [log10 CFU/mL] | Log10 Difference in CFU/mL from Inoculum (MRSA 63718; 4 × MIC, 4 h) | Log10 Difference in CFU/mL from Inoculum (MRSA 63718; 4 × MIC, 6 h) | Log10 Difference in CFU/mL from Inoculum (MRSA 63718; 4 × MIC, 8 h) | Log10 Difference in CFU/mL from Inoculum (MRSA 63718; 4 × MIC, 24 h) [log10 CFU/mL] | Log10 Difference in CFU/mL from Inoculum (S. aureus ATCC 29213; 1 × MIC, 4 h) [log10 CFU/mL] | Log10 Difference in CFU/mL from Inoculum (S. aureus ATCC 29213; 1 × MIC, 6 h) [log10 CFU/mL] | Log10 Difference in CFU/mL from Inoculum (S. aureus ATCC 29213; 1 × MIC, 8 h) [log10 CFU/mL] | also measured |
| --- | --- | --- | --- | --- | --- | --- | --- | --- | --- | --- | --- | --- | --- | --- | --- | --- | --- | --- | --- | --- | --- |
| 128 µg/mL and 252 µM | CCCCCOc1cccc(NC(=O)OC(CN(CCC)CCC)CN2CCCC2)c1.Cl.Cl (centres unmarked) [1f, 1-[3-(dipropylammonio)-2-({[3-(pentyloxy)phenyl]carbamoyl}-oxy)propyl]pyrrolidinium dichloride] | two-fold higher | 32 | 64 | 0.06285 |  |  |  |  |  |  |  |  |  |  |  |  |  |  |  |  |
|  | CN[C@H](CC(C)C)C(=O)N[C@H]1C(=O)N[C@@H](CC(N)=O)C(=O)N[C@H]2C(=O)N[C@H]3C(=O)N[C@H](C(=O)N[C@H](C(=O)O)c4cc(O)cc(O)c4-c4cc3ccc4O)[C@H](O)c3ccc(c(Cl)c3)Oc3cc2cc(c3O[C@@H]2O[C@H](CO)[C@@H](O)[C@H](O)[C@H]2O[C@H]2C[C@](C)(N)[C@H](O)[C@H](C)O2)Oc2ccc(cc2Cl)[C@H]1O [VAN, vancomycin, reference compound] |  |  |  |  | −1.00 log10 CFU/mL | −1.50 | −1.76 | 0.55 | −0.91 log10 CFU/mL | −1.43 log10 CFU/mL | −1.97 | −5.18 | −1.31 log10 CFU/mL | −1.75 log10 CFU/mL | −3.89 log10 CFU/mL | −5.19 | −0.37 | −0.65 | −0.84 | Log10 Difference in CFU/mL from Inoculum (S. aureus ATCC 29213; 1 × MIC, 24 h): 2.90 log10 CFU/mL; Log10 Difference in CFU/mL from Inoculum (S. aureus ATCC 29213; 2 × MIC, 4 h): −0.26 log10 CFU/mL; Log10 Difference in CFU/mL from Inoculum (S. aureus ATCC 29213; 2 × MIC, 6 h): −0.59 log10 CFU/mL; Log10 Difference in CFU/mL from Inoculum (S. aureus ATCC 29213; 2 × MIC, 8 h): −1.12 log10 CFU/mL; Log10 Difference in CFU/mL from Inoculum (S. aureus ATCC 29213; 2 × MIC, 24 h): −3.67 log10 CFU/mL; Log10 Difference in CFU/mL from Inoculum (S. aureus ATCC 29213; 4 × MIC, 4 h): −0.27 log10 CFU/mL; Log10 Difference in CFU/mL from Inoculum (S. aureus ATCC 29213; 4 × MIC, 6 h): −0.38 log10 CFU/mL; Log10 Difference in CFU/mL from Inoculum (S. aureus ATCC 29213; 4 × MIC, 8 h): −1.18 log10 CFU/mL; Log10 Difference in CFU/mL from Inoculum (S. aureus ATCC 29213; 4 × MIC, 24 h): −5.47 log10 CFU/mL |
| 8 µg/mL and 15 µM | CCCCCCCOc1cccc(NC(=O)OC(CN(CCC)CCC)CN2CCCC2)c1.Cl.Cl (centres unmarked) [1h, 1-[3-(Dipropylammonio)-2-({[3-(heptyloxy)phenyl]carbamoyl}oxy)propyl]pyrrolidinium dichloride] | equal to minimum inhibitory concentration against planktonic cells | 8 | 16 | 0.05786 | −0.73 * log10 CFU/mL | −0.11 | 0.98 | 1.58 | −0.92 * log10 CFU/mL | −0.42 * log10 CFU/mL | −0.13 | 1.62 | −2.48 * log10 CFU/mL | −2.40 * log10 CFU/mL | −2.08 * log10 CFU/mL | 1.35 | 0.08 | 0.31 | 0.50 | Log10 Difference in CFU/mL from Inoculum (S. aureus ATCC 29213; 1 × MIC, 24 h): 2.07 log10 CFU/mL; Log10 Difference in CFU/mL from Inoculum (S. aureus ATCC 29213; 2 × MIC, 4 h): 0.05 log10 CFU/mL; Log10 Difference in CFU/mL from Inoculum (S. aureus ATCC 29213; 2 × MIC, 6 h): 0.10 log10 CFU/mL; Log10 Difference in CFU/mL from Inoculum (S. aureus ATCC 29213; 2 × MIC, 8 h): 0.05 log10 CFU/mL; Log10 Difference in CFU/mL from Inoculum (S. aureus ATCC 29213; 2 × MIC, 24 h): 2.01 log10 CFU/mL; Log10 Difference in CFU/mL from Inoculum (S. aureus ATCC 29213; 4 × MIC, 4 h): −0.25 log10 CFU/mL; Log10 Difference in CFU/mL from Inoculum (S. aureus ATCC 29213; 4 × MIC, 6 h): −0.13 log10 CFU/mL; Log10 Difference in CFU/mL from Inoculum (S. aureus ATCC 29213; 4 × MIC, 8 h): −0.08 log10 CFU/mL; Log10 Difference in CFU/mL from Inoculum (S. aureus ATCC 29213; 4 × MIC, 24 h): 1.93 log10 CFU/mL; concentration giving 80% degradation of preformed biofilm relative to MIC [3]: two-fold |
